{"source": "patent US20090227562A1", "about": "“Combination of a Selective Noradrenaline Reuptake Unhibitor and a PDEV Inhibitor” (Pfizer Inc., priority 2004, published 2009)", "key": {"[1]": {"system": "static allodynia in the CCI rat model", "assay": "Static allodynia (von Frey hairs) in the chronic constriction injury (CCI) rat model of neuropathic pain", "type": "in vivo", "details": "CCI rats; for paw withdrawal threshold (PWT), reversal compared to the vehicle treated group: single administration, peak effect 1 h post administration, median [LQ;UQ], 6 rats per group, CCI baseline 2 g; for anti-allodynic effect following single administration: static allodynia, (S,S)-reboxetine 1-3-10-30 mg/kg IP, Compound A 3-10-30 mg/kg SC", "procedure": "Male Sprague Dawley rats (175-200 g at time of surgery), obtained from Charles River, Margate, U.K.) were housed in groups of 3-6. All animals were kept under a 12 h light/dark cycle (lights on at 07 h 00 min) with food and water ad libitum. All experiments were carried out by an observer blind to drug treatments. Animals were placed in an anaesthetic chamber and anaesthetised with a 2% isofluorane O2 mixture. The right hind thigh is shaved and swabbed with 1% iodine. Animals were then transferred to a homeothermic blanket for the duration of the procedure and anaesthesia maintained during surgery via a nose cone. The skin was cut along the line of the thigh bone. The common sciatic nerve was exposed at the middle of the thigh by blunt dissection through biceps femoris. Proximal to the sciatic trifurcation, about 7 mm of nerve was freed by inserting forceps under the nerve and the nerve gently lifted out of the thigh. The forceps were gently opened and closed several times to aid clearance of the fascia from the nerve. Suture was pulled under the nerve using forceps and tied in a simple knot until slight resistance was felt and then double knotted. The procedure was repeated until 4 ligatures (4-0 silk) were tied loosely around the nerve with approx 1 mm spacing. The incision was closed in layers and the wound treated with topical antibiotics. Animals were habituated to test cages prior to the assessment of allodynia. Static allodynia was evaluated by application of von Frey hairs (Stoelting, Wood Dale, Ill., USA) in ascending order of force (0.7, 1.2, 1.4, 2, 4, 6, 8, 10, 15 and 26 grams) to the plantar surface of hind paws. […] Once a withdrawal response to a von Frey hair was established, the paw was re-tested, starting with the filament below the one that produced a withdrawal, and subsequently with the remaining filaments in descending force sequence until no withdrawal occurred. The highest force of 26 g lifted the paw as well as eliciting a response, thus represented the cut off point. Each animal had both hind paws tested in this manner. The lowest amount of force required to elicit a response was recorded as paw withdrawal threshold (PWT) in grams. Static allodynia was defined as present if animals responded to a stimulus of, or less than, 4 g, which is innocuous in normal rats. […] Static allodynia was graphically represented as median [LQ;UQ] in a logarithmic scale and data analysed by Kruskall-Wallis test for non-parametric results, followed by Mann-Whitney's U test vs vehicle group for each time point, using Prism Software version 3 (GraphPad, San Diego, USA). […] Data are the peak effects (1 h post administration) for each compound and doses expressed as median [LQ; […] In this specific case it corresponds to the Compound A dose-response line."}, "norepinephrine reuptake": {"system": "norepinephrine reuptake", "details": "as disclosed in WO-A-01/01973; cited from earlier work"}, "dopamine reuptake": {"system": "dopamine reuptake", "details": "cited from earlier work"}, "serotonin reuptake": {"system": "serotonin reuptake", "details": "cited from earlier work"}}}
{"smiles": "CCCOc1ccc(S(=O)(=O)N2CCN(CC)CC2)cc1-c1nc2c(CC)n(Cc3ccccn3)nc2c(=O)[nH]1", "note": "[Compound A, 3-ethyl-5-[5-(4-ethylpiperazin-1-ylsulphonyl)-2-n-propoxyphenyl]-2-(pyridin-2-yl)methyl-2,6-dihydro-7H-pyrazolo[4,3-d]pyrimidin-7-one]", "values": [{"measurement": "paw withdrawal threshold (PWT), reversal compared to the vehicle treated group", "setting": "[1]; 30 mg/kg SC", "result": 6, "unit": "g"}, {"measurement": "anti-allodynic effect following single administration", "setting": "[1]", "result": "dose dependent anti-allodynic effect"}]}
{"smiles": "CCOc1ccccc1O[C@@H](c1ccccc1)[C@@H]1CNCCO1", "note": "[(S,S)-reboxetine]", "values": [{"measurement": "paw withdrawal threshold (PWT), reversal compared to the vehicle treated group", "setting": "[1]; 30 mg/kg IP (free base)", "result": 6, "unit": "g"}, {"measurement": "anti-allodynic effect following single administration", "setting": "[1]", "result": "dose dependent anti-allodynic effect"}, {"measurement": "selectivity for the inhibition of norepinephrine reuptake over the inhibition of serotonin reuptake", "setting": "norepinephrine reuptake", "result": "greatly enhanced selectivity"}]}
{"smiles": "CCOc1ccccc1OC(c1ccccc1)C1CNCCO1", "note": "(racemic) [Reboxetine, (R,R/S,S)-(2-[(2-ethoxyphenoxy)(phenyl)methyl]morpholine)]", "values": [{"measurement": "dopamine reuptake inhibition", "setting": "dopamine reuptake", "result": "no dopamine reuptake inhibition"}, {"measurement": "serotonin reuptake inhibition", "setting": "serotonin reuptake", "result": "only marginal serotonin reuptake inhibition"}]}
